From ChEMBL document CHEMBL1201862, “PubChem BioAssay data set” (2004)
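Grown in 96-well plates, cells were treated for 48 hours with each compound at five concentrations. Insufficient inhibition: endpoint recorded as highest concentration tested. GI50: concentration for 50% inhibition of growth.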 Activity calls are given as the source filed them. Rule as the data show it: active = GI50 up to about 1.1 µM and inactive = higher.

Tests used:
Experiment in all cases: NCI tumour cell line growth inhibition, 48 h
HCT-15 = tested on: HCT-15
DMS-114 = tested on: DMS-114
HOP-92 = tested on: HOP-92
SNB-75 = tested on: SNB-75
786-0 = tested on: 786-0
KM12 = tested on: KM12
SK-OV-3 = tested on: SK-OV-3
RPMI-8226 = tested on: RPMI-8226
SK-MEL-2 = tested on: SK-MEL-2
COLO 205 = tested on: COLO 205
LOX IMVI = tested on: LOX IMVI
U-251 = tested on: U-251
SN12C = tested on: SN12C
IGROV-1 = tested on: IGROV-1
SF-268 = tested on: SF-268
TK-10 = tested on: TK-10
SR = tested on: SR
DU-145 = tested on: DU-145
NCI/ADR-RES = tested on: NCI/ADR-RES
PC-3 = tested on: PC-3

O=C(OCc1ccccc1)N1N=NC2C3CC(OCc4ccccc4)(OCc4ccccc4)C(O3)C21 (stereo unspecified)
GI50 (HCT-15): 34 µM
GI50 (DMS-114): 8.99 µM (inactive)
GI50 (HOP-92): 12.6 µM (inactive)
GI50 (SNB-75): 24.3 µM (inactive)
GI50 (786-0): 29.1 µM (inactive)
GI50 (KM12): 36.3 µM (inactive)
GI50 (SK-OV-3): 99.3 µM (inactive)
GI50 (RPMI-8226): 7.24 µM (inactive)
GI50 (SK-MEL-2): 16.3 µM (inactive)
GI50 (COLO 205): 23.1 µM (inactive)
GI50 (LOX IMVI): 15.1 µM (inactive)
GI50 (U-251): 40.6 µM (inactive)
GI50 (SN12C): 41.9 µM (inactive)
GI50 (IGROV-1): 49.5 µM (inactive)
GI50 (SF-268): 22.4 µM (inactive)

Cc1cc(NS(=O)(=O)c2ccc(Nc3c4ccccc4nc4c(C(=O)N5CCN(CCOS(C)(=O)=O)CC5)cccc34)cc2)no1
GI50 (HCT-15): > 100 µM
GI50 (DMS-114): > 100 µM (inactive)
GI50 (HOP-92): > 100 µM (inactive)
GI50 (SNB-75): > 100 µM (inactive)
GI50 (786-0): > 100 µM (inactive)
GI50 (KM12): > 100 µM (inactive)
GI50 (SK-OV-3): > 100 µM (inactive)
GI50 (RPMI-8226): > 100 µM (inactive)
GI50 (SK-MEL-2): > 100 µM (inactive)
GI50 (COLO 205): > 100 µM (inactive)
GI50 (U-251): > 100 µM (inactive)
GI50 (SN12C): > 100 µM (inactive)
GI50 (IGROV-1): > 100 µM (inactive)
GI50 (TK-10): > 100 µM (inactive)
GI50 (SF-268): > 100 µM (inactive)

CNc1nc(N)cc(O)n1
GI50 (HCT-15): > 100 µM
GI50 (DMS-114): > 100 µM (inactive)
GI50 (SNB-75): > 100 µM (inactive)
GI50 (786-0): > 100 µM (inactive)
GI50 (KM12): > 100 µM (inactive)
GI50 (SK-OV-3): > 100 µM (inactive)
GI50 (RPMI-8226): > 100 µM (inactive)
GI50 (SK-MEL-2): > 100 µM (inactive)
GI50 (COLO 205): > 100 µM (inactive)
GI50 (LOX IMVI): > 100 µM (inactive)
GI50 (U-251): > 100 µM (inactive)
GI50 (SN12C): > 100 µM (inactive)
GI50 (IGROV-1): > 100 µM (inactive)
GI50 (TK-10): > 100 µM (inactive)
GI50 (SF-268): > 100 µM (inactive)

COc1cc([C@@H]2c3cc4c(cc3[C@@H](OC(=O)c3ccccc3)C3COC(=O)[C@@H]32)OCO4)cc(OC)c1O (stereo partly specified)
GI50 (DMS-114): < 0.01 µM (active)
GI50 (HOP-92): < 0.01 µM (active)
GI50 (SNB-75): < 0.01 µM (active)
GI50 (786-0): 0.0254 µM (active)
GI50 (KM12): < 0.01 µM (active)
GI50 (SK-OV-3): < 0.01 µM (active)
GI50 (RPMI-8226): 0.012 µM (active)
GI50 (SK-MEL-2): 0.0104 µM (active)
GI50 (COLO 205): 0.148 µM (active)
GI50 (LOX IMVI): < 0.01 µM (active)
GI50 (U-251): 0.0143 µM (active)
GI50 (SN12C): 0.0286 µM (active)
GI50 (IGROV-1): 0.0123 µM (active)
GI50 (TK-10): 38.9 µM (inactive)
GI50 (SF-268): 0.0289 µM (active)

O=C(CCc1ccccc1)On1nnc2ccccc2c1=O
GI50 (HCT-15): > 100 µM
GI50 (DMS-114): > 100 µM (inactive)
GI50 (HOP-92): > 100 µM (inactive)
GI50 (SNB-75): > 100 µM (inactive)
GI50 (786-0): > 100 µM (inactive)
GI50 (KM12): > 100 µM (inactive)
GI50 (SK-OV-3): > 100 µM (inactive)
GI50 (SK-MEL-2): > 100 µM (inactive)
GI50 (COLO 205): > 100 µM (inactive)
GI50 (LOX IMVI): > 100 µM (inactive)
GI50 (U-251): > 100 µM (inactive)
GI50 (SN12C): > 100 µM (inactive)
GI50 (SR): > 100 µM (inactive)
GI50 (IGROV-1): > 100 µM (inactive)
GI50 (TK-10): 26.5 µM (inactive)
GI50 (SF-268): > 100 µM (inactive)

C[C@@H](C[C@H]1OC(C)(C)O[C@@H]1C(C)(C)O)[C@H]1CC=C2[C@]3(C)[C@H](O)C[C@H]4C(C)(C)[C@H](O)CC[C@]4(C)[C@H]3CC[C@]21C
GI50 (HCT-15): 6.03 µM
GI50 (HOP-92): 6.21 µM (inactive)
GI50 (SNB-75): 9.79 µM (inactive)
GI50 (786-0): 9.73 µM (inactive)
GI50 (KM12): 6.21 µM (inactive)
GI50 (SK-OV-3): 12.5 µM (inactive)
GI50 (RPMI-8226): 4.03 µM (inactive)
GI50 (SK-MEL-2): 11.5 µM (inactive)
GI50 (COLO 205): 5.26 µM (inactive)
GI50 (LOX IMVI): 8.13 µM (inactive)
GI50 (DU-145): 14.1 µM (inactive)
GI50 (U-251): 6.84 µM (inactive)
GI50 (NCI/ADR-RES): 7.69 µM (inactive)
GI50 (SN12C): 3.32 µM (inactive)
GI50 (SR): 4.76 µM (inactive)
GI50 (IGROV-1): 11.9 µM (inactive)
GI50 (PC-3): 5.05 µM (inactive)
GI50 (TK-10): 11.7 µM (inactive)
GI50 (SF-268): 10.5 µM (inactive)

O=C1C2c3[nH]c4ccccc4c3C3CCCC3C2C(=O)N1c1ccccc1 (stereo unspecified)
GI50 (HCT-15): 78 µM
GI50 (DMS-114): > 100 µM (inactive)
GI50 (SNB-75): 40.6 µM (inactive)
GI50 (786-0): > 100 µM (inactive)
GI50 (KM12): > 100 µM (inactive)
GI50 (SK-OV-3): > 100 µM (inactive)
GI50 (RPMI-8226): > 100 µM (inactive)
GI50 (COLO 205): > 100 µM (inactive)
GI50 (LOX IMVI): > 100 µM (inactive)
GI50 (U-251): > 100 µM (inactive)
GI50 (SN12C): > 100 µM (inactive)
GI50 (SR): > 100 µM (inactive)
GI50 (IGROV-1): > 100 µM (inactive)
GI50 (TK-10): > 100 µM (inactive)
GI50 (SF-268): > 100 µM (inactive)

O=[PH](O)c1ccccn1
GI50 (HCT-15): > 100 µM
GI50 (DMS-114): > 100 µM (inactive)
GI50 (HOP-92): > 100 µM (inactive)
GI50 (SNB-75): > 100 µM (inactive)
GI50 (786-0): > 100 µM (inactive)
GI50 (KM12): > 100 µM (inactive)
GI50 (SK-OV-3): > 100 µM (inactive)
GI50 (RPMI-8226): > 100 µM (inactive)
GI50 (COLO 205): > 100 µM (inactive)
GI50 (LOX IMVI): > 100 µM (inactive)
GI50 (U-251): > 100 µM (inactive)
GI50 (SN12C): > 100 µM (inactive)
GI50 (IGROV-1): > 100 µM (inactive)
GI50 (TK-10): > 100 µM (inactive)
GI50 (SF-268): > 100 µM (inactive)

CCOc1ccc(-c2oc(/C=N/NS(=O)(=O)c3ccc(C)cc3)c([N+](=O)[O-])c2-c2ccc(OCC)cc2)cc1
GI50 (HCT-15): 5.65 µM
GI50 (DMS-114): 3.21 µM (inactive)
GI50 (HOP-92): 8.85 µM (inactive)
GI50 (SNB-75): 4.19 µM (inactive)
GI50 (786-0): 12.4 µM (inactive)
GI50 (KM12): 8.81 µM (inactive)
GI50 (SK-OV-3): 15.4 µM (inactive)
GI50 (RPMI-8226): 2.58 µM (inactive)
GI50 (SK-MEL-2): 19.9 µM (inactive)
GI50 (COLO 205): 17.5 µM (inactive)
GI50 (LOX IMVI): 3.46 µM (inactive)
GI50 (U-251): 8.22 µM (inactive)
GI50 (SN12C): 12.8 µM (inactive)
GI50 (IGROV-1): 14.1 µM (inactive)
GI50 (TK-10): 22 µM (inactive)
GI50 (SF-268): 17.9 µM (inactive)
